Read-outs that look alike come from different tables or passages of the source.
Experiments:
[1] = tested on: T47D (PI3Kα H1047R mutant) cells; experiment: CellTiter-Glo 2.0 luminescent cell viability assay, 72 hours, T47D cells; format: cell-based; conditions: T47D (PI3Kα H1047R mutant) cells, CellTiter-Glo, approximately 72 hours, read-out: T47D (H1047R mutant) Viability IC50
Outline: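 Viability was measured by CellTiter-Glo 2.0 luminescence after approximately 72 h of compound exposure at 37° C. Plating was 1000 cells per well the day before dosing, with ten 1:4 dilutions from a 10 µM top concentration. Values as percent of vehicle were fitted by variable-slope log(inhibitor) regression to give IC50.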

[2] = tested on: SKBR3 (PI3Kα wild type) cells; experiment: CellTiter-Glo 2.0 luminescent cell viability assay, 72 hours, SKBR3 cells; format: cell-based; conditions: SKBR3 (PI3Kα wild type) cells, CellTiter-Glo, approximately 72 hours, read-out: SKBR3 (WT) Viability IC50
Outline: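 Viability measured via CTG luminescence following roughly 72 hours of compound exposure at 37° C. Dosing used a 10 um starting concentration diluted 1:4 over 10 points; percent-of-vehicle data fitted with a variable-slope four-parameter model for IC50.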

Row | Structure (SMILES) | IC50 ([1]; Homo sapiens, T47D, 72 h) [nM] | IC50 ([2]; Homo sapiens, SK-BR-3, 72 h) [nM] | IC50 [1] [nM] | IC50 [2] [nM]
1 | [2H]C12CC(C3CCN(c4nc5c([C@@H](C)Nc6ccccc6C(=O)O)cc(C)cn5c(=O)c4C)CC3)(C1)C2 [Example 11-36, (R)-2-((1-(2-(4-(bicyclo[1.1.1]pentan-1-yl-3-d)piperidin-1-yl)-3,7-dimethyl-4-oxo-4H-pyrido[1,2-a]pyrimidin-9-yl)ethyl)amino)benzoic acid] | 390 | > 10000 | – | –
2 | Cc1cc([C@@H](C)Nc2ccccc2C(=O)O)c2nc(N3CCN(c4c(C)cccc4C)CC3)c(C)c(=O)n2c1 [Example 11-37, (R)-2-((1-(2-(4-(2,6-dimethylphenyl)piperazin-1-yl)-3,7-dimethyl-4-oxo-4H-pyrido[1,2-a]pyrimidin-9-yl)ethyl)amino)benzoic acid] | 816 | > 10000 | – | –
3 | Cc1cc([C@H](C)Nc2ccc(F)nc2C(=O)O)c2nc(N3CCC(F)(F)CC3)c(C#N)c(=O)n2c1 [Example 11-43, (S)-3-((1-(3-cyano-2-(4,4-difluoropiperidin-1-yl)-7-methyl-4-oxo-4H-pyrido[1,2-a]pyrimidin-9-yl)ethyl)amino)-6-fluoropicolinic acid] | 372 | > 10000 | – | –
4 | Cc1cc([C@@H](C)Nc2ccc(F)nc2C(=O)O)c2nc(N3CCC(F)(F)CC3)c(C#N)c(=O)n2c1 [Example 11-44, (R)-3-((1-(3-cyano-2-(4,4-difluoropiperidin-1-yl)-7-methyl-4-oxo-4H-pyrido[1,2-a]pyrimidin-9-yl)ethyl)amino)-6-fluoropicolinic acid] | 9550 | > 10000 | – | –
5 | Cc1cc([C@@H](C)Nc2ccc(F)nc2C(=O)O)c2nc(N3CCC(F)(F)CC3)c(C)c(=O)n2c1 [Example 11-45, (R)-3-((1-(2-(4,4-difluoropiperidin-1-yl)-3,7-dimethyl-4-oxo-4H-pyrido[1,2-a]pyrimidin-9-yl)ethyl)amino)-6-fluoropicolinic acid] | – | – | 2970 | > 10000
6 | Cc1cc([C@@H](C)Nc2ccccc2C(=O)O)c2nc(N3C[C@H](F)C[C@H](F)C3)c(C#N)c(=O)n2c1 [Example 11-48, 2-(((R)-1-(3-cyano-2-((3R,5S)-3,5-difluoropiperidin-1-yl)-7-methyl-4-oxo-4H-pyrido[1,2-a]pyrimidin-9-yl)ethyl)amino)benzoic acid] | 854 | > 10000 | – | –
7 | Cc1cc([C@@H](C)Nc2ccccc2C(=O)O)c2nc(N[C@H](C)c3cccnc3)c(C#N)c(=O)n2c1 [Example 11-51, 2-(((R)-1-(3-cyano-7-methyl-4-oxo-2-(((R)-1-(pyridin-3-yl)ethyl)amino)-4H-pyrido[1,2-a]pyrimidin-9-yl)ethyl)amino)benzoic acid] | > 10000 | > 10000 | – | –
8 | Cc1cc([C@@H](C)Nc2ccccc2C(=O)O)c2nc(N[C@@H](C)c3cccnc3)c(C#N)c(=O)n2c1 [Example 11-52, 2-(((R)-1-(3-cyano-7-methyl-4-oxo-2-(((S)-1-(pyridin-3-yl)ethyl)amino)-4H-pyrido[1,2-a]pyrimidin-9-yl)ethyl)amino)benzoic acid] | 6640 | > 10000 | – | –
9 | Cc1cc([C@@H](C)Nc2ccccc2C(=O)O)c2nc(N3CCC(c4cc[nH]n4)CC3)c(C#N)c(=O)n2c1 [Example 11-53, (R)-2-((1-(2-(4-(1H-pyrazol-3-yl)piperidin-1-yl)-3-cyano-7-methyl-4-oxo-4H-pyrido[1,2-a]pyrimidin-9-yl)ethyl)amino)benzoic acid] | 2520 | > 10000 | – | –
10 | Cc1cc([C@@H](C)Nc2ccccc2C(=O)O)c2nc(N3CCC4(CCOC4)CC3)c(C)c(=O)n2c1 [Example 11-62, (R)-2-((1-(3,7-dimethyl-4-oxo-2-(2-oxa-8-azaspiro[4.5]decan-8-yl)-4H-pyrido[1,2-a]pyrimidin-9-yl)ethyl)amino)benzoic acid] | – | – | 173 | > 10000

Continued, values first:

Row | IC50 ([1]; Homo sapiens, T47D, 72 h) [nM] | IC50 ([2]; Homo sapiens, SK-BR-3, 72 h) [nM] | IC50 [1] [nM] | IC50 [2] [nM] | Structure (SMILES)
11 | 194 | > 10000 | – | – | Cc1cc([C@@H](C)Nc2ccccc2C(=O)O)c2nc(N3Cc4cccc(F)c4C3)c(C)c(=O)n2c1 [Example 11-38, (R)-2-((1-(2-(4-fluoroisoindolin-2-yl)-3,7-dimethyl-4-oxo-4H-pyrido[1,2-a]pyrimidin-9-yl)ethyl)amino)benzoic acid]
12 | 114 | > 10000 | – | – | COc1ccc(C2CCN(c3nc4c([C@@H](C)Nc5ccccc5C(=O)O)cc(C)cn4c(=O)c3C)CC2)cc1 [Example 11-39, (R)-2-((1-(2-(4-(4-methoxyphenyl)piperidin-1-yl)-3,7-dimethyl-4-oxo-4H-pyrido[1,2-a]pyrimidin-9-yl)ethyl)amino)benzoic acid]
13 | 172 | > 10000 | – | – | Cc1cc([C@@H](C)Nc2ccccc2C(=O)O)c2nc(N3CCN(CC(F)F)CC3)c(C#N)c(=O)n2c1 [Example 11-42, (R)-2-((1-(3-cyano-2-(4-(2,2-difluoroethyl)piperazin-1-yl)-7-methyl-4-oxo-4H-pyrido[1,2-a]pyrimidin-9-yl)ethyl)amino)benzoic acid]
14 | 150 | > 10000 | – | – | Cc1cc([C@@H](C)Nc2ccc(C)nc2C(=O)O)c2nc(N3CCC(F)(F)CC3)c(C)c(=O)n2c1 [Example 11-46, (R)-3-((1-(2-(4,4-difluoropiperidin-1-yl)-3,7-dimethyl-4-oxo-4H-pyrido[1,2-a]pyrimidin-9-yl)ethyl)amino)-6-methylpicolinic acid]
15 | 242 | > 10000 | – | – | Cc1cc([C@@H](C)Nc2ccccc2C(=O)O)c2nc(N3C[C@H](F)C[C@@H](F)C3)c(C#N)c(=O)n2c1 [Example 11-47, 2-(((R)-1-(3-cyano-2-((3R,5R)-3,5-difluoropiperidin-1-yl)-7-methyl-4-oxo-4H-pyrido[1,2-a]pyrimidin-9-yl)ethyl)amino)benzoic acid]
16 | 204 | > 10000 | – | – | Cc1cc([C@@H](C)Nc2ccccc2C(=O)O)c2nc(NCC(C)C(F)(F)F)c(C#N)c(=O)n2c1 (stereo partly drawn) [Example 11-49, 2-(((1R)-1-(3-cyano-7-methyl-4-oxo-2-((3,3,3-trifluoro-2-methylpropyl)amino)-4H-pyrido[1,2-a]pyrimidin-9-yl)ethyl)amino)benzoic acid]
17 | 217 | > 10000 | – | – | C[C@@H](Nc1ccc(Cl)nc1C(=O)O)c1cc(Cl)cn2c(=O)c(C#N)c(N3CCC(F)(F)CC3)nc12 [Example 11-50, (R)-6-chloro-3-((1-(7-chloro-3-cyano-2-(4,4-difluoropiperidin-1-yl)-4-oxo-4H-pyrido[1,2-a]pyrimidin-9-yl)ethyl)amino)picolinic acid]
18 | 325 | > 10000 | – | – | Cc1cc([C@@H](C)Nc2ccccc2C(=O)O)c2nc(N3CCC4(CC3)CC(F)(F)C4)c(C)c(=O)n2c1 [Example 11-54, (R)-2-((1-(2-(2,2-difluoro-7-azaspiro[3.5]nonan-7-yl)-3,7-dimethyl-4-oxo-4H-pyrido[1,2-a]pyrimidin-9-yl)ethyl)amino)benzoic acid]
19 | 219 | > 10000 | – | – | Cc1cc([C@@H](C)Nc2ccccc2C(=O)O)c2nc(N3CCC4(CCO4)CC3)c(C#N)c(=O)n2c1 [Example 11-55, (R)-2-((1-(3-cyano-7-methyl-4-oxo-2-(1-oxa-7-azaspiro[3.5]nonan-7-yl)-4H-pyrido[1,2-a]pyrimidin-9-yl)ethyl)amino)benzoic acid]
20 | 264 | > 10000 | – | – | Cc1cc([C@@H](C)Nc2ccccc2C(=O)O)c2nc(N3CCC4(CCO4)CC3)c(C)c(=O)n2c1 [Example 11-56, (R)-2-((1-(3,7-dimethyl-4-oxo-2-(1-oxa-7-azaspiro[3.5]nonan-7-yl)-4H-pyrido[1,2-a]pyrimidin-9-yl)ethyl)amino)benzoic acid]
21 | 132 | > 10000 | – | – | CO[C@H]1CN(c2nc3c([C@@H](C)Nc4ccccc4C(=O)O)cc(C)cn3c(=O)c2C)CCC1(F)F [Example 11-57, 2-(((R)-1-(2-((S)-4,4-difluoro-3-methoxypiperidin-1-yl)-3,7-dimethyl-4-oxo-4H-pyrido[1,2-a]pyrimidin-9-yl)ethyl)amino)benzoic acid]
22 | 170 | > 10000 | – | – | CO[C@@H]1CN(c2nc3c([C@@H](C)Nc4ccccc4C(=O)O)cc(C)cn3c(=O)c2C)CCC1(F)F [Example 11-58, 2-(((R)-1-(2-((R)-4,4-difluoro-3-methoxypiperidin-1-yl)-3,7-dimethyl-4-oxo-4H-pyrido[1,2-a]pyrimidin-9-yl)ethyl)amino)benzoic acid]
23 | 273 | > 10000 | – | – | Cc1cc([C@@H](C)Nc2ccccc2C(=O)O)c2nc(N3CC[C@@H](C)C(F)(F)C3)c(C)c(=O)n2c1 [Example 11-59, 2-(((R)-1-(2-((R)-3,3-difluoro-4-methylpiperidin-1-yl)-3,7-dimethyl-4-oxo-4H-pyrido[1,2-a]pyrimidin-9-yl)ethyl)amino)benzoic acid]
24 | 158 | > 10000 | – | – | Cc1cc([C@@H](C)Nc2ccccc2C(=O)O)c2nc(N3CC[C@H](C)C(F)(F)C3)c(C)c(=O)n2c1 [Example 11-60, 2-(((R)-1-(2-((S)-3,3-difluoro-4-methylpiperidin-1-yl)-3,7-dimethyl-4-oxo-4H-pyrido[1,2-a]pyrimidin-9-yl)ethyl)amino)benzoic acid]
25 | 145 | > 10000 | – | – | Cc1cc([C@@H](C)Nc2ccccc2C(=O)O)c2nc(N3CC(F)(F)C4(CC4)C3)c(C)c(=O)n2c1 [Example 11-61, (R)-2-((1-(2-(7,7-difluoro-5-azaspiro[2.4]heptan-5-yl)-3,7-dimethyl-4-oxo-4H-pyrido[1,2-a]pyrimidin-9-yl)ethyl)amino)benzoic acid]

From patent publication US20260078120A1, “SUBSTITUTED PYRIDOPYRIMIDINONES” (MIRATI THERAPEUTICS, INC., priority 2022, published 2026)
